Measurements reported in US20150017667A1, “MEANS AND METHODS FOR ASSESSING LIVER DISORDERS” (BASF SE, priority 2012, published 2015).
Marks after values point to notes of the source that are not given here.

Tested on: male rats
Test: 28-day repeated dose oral toxicity study (OECD 407) with GC-MS/LC-MS plasma metabolite profiling, male rats
Assay type: in vivo, rat
Conditions: plasma
Description: Drinking water was also offered ad libitum.
The samples were centrifuged for generation of plasma.

What does the source list for `CC(C)(Oc1ccc(CCNC(=O)c2ccc(Cl)cc2)cc1)C(=O)O` [Bezafibrate]?
3-O-Methylsphingosine (d18:1), ratio versus control (day 7): 0.48*; 5-O-Methylsphingosine (d18:1), ratio versus control (day 7): 0.4*; 14-Methylhexadecanoic acid, ratio versus control (day 7): 0.93; 16-Methylheptadecanoic acid, ratio versus control (day 7): 0.29*; 17-Methyloctadecanoic acid, ratio versus control (day 7): 0.24*; Arachidonic acid (C20:cis[5,8,11,14]4), ratio versus control (day 7): 0.26*; Arginine, ratio versus control (day 7): 0.65*; Ascorbic acid, ratio versus control (day 7): 1.54*; Behenic acid (C22:0), ratio versus control (day 7): 0.44*; Campesterol, ratio versus control (day 7): 0.24*; Cholesterol, ratio versus control (day 7): 0.37*; Choline plasmalogen (C18,C20:4), ratio versus control (day 7): 0.47*; Choline plasmalogen No 01, ratio versus control (day 7): 0.87*; Choline plasmalogen No 02, ratio versus control (day 7): 0.46*; Choline plasmalogen No 03, ratio versus control (day 7): 0.49*; Coenzyme Q10, ratio versus control (day 7): 0.46*; Cytosine, ratio versus control (day 7): 0.89*; Docosapentaenoic acid (C22:cis[7,10,13,16,19]5), ratio versus control (day 7): 0.43*; Eicosanoic acid (C20:0), ratio versus control (day 7): 0.51*; Glucose, ratio versus control (day 7): 1.54*; Glycine, ratio versus control (day 7): 1.79*; Heptadecanoic acid (C17:0), ratio versus control (day 7): 0.69*; Isopalmitic acid (C16:0), ratio versus control (day 7): 0.53*; Kynurenic acid, ratio versus control (day 7): 1.89*; Lignoceric acid (C24:0), ratio versus control (day 7): 0.54*; Lysophosphatidylcholine (C17:0), ratio versus control (day 7): 0.51*; Lysophosphatidylcholine (C18:0), ratio versus control (day 7): 0.79*; Lysophosphatidylcholine (C18:2), ratio versus control (day 7): 1.4*; Lysophosphatidylethanolamine (C22:0), ratio versus control (day 7): 0.27*; Lysophosphatidylethanolamine (C22:5), ratio versus control (day 7): 1.59*; Mannose, ratio versus control (day 7): 1.32*; Metanephrine, ratio versus control (day 7): 0.5; Nervonic acid (C24:cis[15]1), ratio versus control (day 7): 0.4*; Normetanephrine, ratio versus control (day 7): 0.6*; Pantothenic acid, ratio versus control (day 7): 2.36*; Phosphatidylcholine (C18:0,C20:3), ratio versus control (day 7): 0.48*; Phosphatidylcholine (C18:0,C20:4), ratio versus control (day 7): 0.78*; Phosphatidylcholine (C18:2,C20:4), ratio versus control (day 7): 0.65*; Phosphatidylcholine No 02, ratio versus control (day 7): 0.35*; Phosphatidylcholine No 04, ratio versus control (day 7): 0.23*; Sphingomyelin (d18:1,C16:0), ratio versus control (day 7): 0.88*; Sphingomyelin (d18:2,C16:0), ratio versus control (day 7): 0.72*; Stearic acid (C18:0), ratio versus control (day 7): 0.42*; Tricosanoic acid (C23:0), ratio versus control (day 7): 0.5*; beta-Sitosterol, ratio versus control (day 7): 0.24*; dihomo-gamma-Linolenic acid (C20:cis[8,11,14]3), ratio versus control (day 7): 3.63*; erythro-Sphingosine, ratio versus control (day 7): 0.49*; myo-Inositol-2-phosphate, lipid fraction, ratio versus control (day 7): 0.28*; threo-Sphingosine, ratio versus control (day 7): 0.56*; trans-4-Hydroxyproline, ratio versus control (day 7): 0.71*; Lysophosphatidylcholine (C18:1), ratio versus control (day 7 (Table 3a)): 1.44*; Phosphatidylcholine (C16:0,C20:5), ratio versus control (day 7 (Table 3a)): 1.4*; Docosahexaenoic acid (C22:cis[4,7,10,13,16,19]6), ratio versus control (day 7 (Table 3b)): 0.25*; Phosphatidylcholine (C18:0,C22:6), ratio versus control (day 7 (Table 3b)): 0.36*; alpha-Tocopherol, ratio versus control (day 7 (Table 3b)): 0.75*; 3-O-Methylsphingosine (d18:1), ratio versus control (day 14): 0.44*; 5-O-Methylsphingosine (d18:1), ratio versus control (day 14): 0.41*; 14-Methylhexadecanoic acid, ratio versus control (day 14): 0.89*; 16-Methylheptadecanoic acid, ratio versus control (day 14): 0.25*; 17-Methyloctadecanoic acid, ratio versus control (day 14): 0.24*; Arachidonic acid (C20:cis[5,8,11,14]4), ratio versus control (day 14): 0.31*; Arginine, ratio versus control (day 14): 0.59*; Ascorbic acid, ratio versus control (day 14): 1.32*; Behenic acid (C22:0), ratio versus control (day 14): 0.58*; Campesterol, ratio versus control (day 14): 0.31*; Cholesterol, ratio versus control (day 14): 0.48*; Choline plasmalogen (C18,C20:4), ratio versus control (day 14): 0.5*; Choline plasmalogen No 01, ratio versus control (day 14): 0.82*; Choline plasmalogen No 02, ratio versus control (day 14): 0.52*; Choline plasmalogen No 03, ratio versus control (day 14): 0.63*; Coenzyme Q10, ratio versus control (day 14): 0.58*; Cytosine, ratio versus control (day 14): 0.84; Docosapentaenoic acid (C22:cis[7,10,13,16,19]5), ratio versus control (day 14): 0.62*; Eicosanoic acid (C20:0), ratio versus control (day 14): 0.67*; Glucose, ratio versus control (day 14): 1.29*; Glycine, ratio versus control (day 14): 1.58*; Heptadecanoic acid (C17:0), ratio versus control (day 14): 0.83*; Isopalmitic acid (C16:0), ratio versus control (day 14): 0.53*; Kynurenic acid, ratio versus control (day 14): 5.15*; Lignoceric acid (C24:0), ratio versus control (day 14): 0.44*; Lysophosphatidylcholine (C17:0), ratio versus control (day 14): 0.51*; Lysophosphatidylcholine (C18:0), ratio versus control (day 14): 0.85*; Lysophosphatidylcholine (C18:2), ratio versus control (day 14): 1.68*; Lysophosphatidylethanolamine (C22:0), ratio versus control (day 14): 0.32*; Lysophosphatidylethanolamine (C22:5), ratio versus control (day 14): 1.9*; Mannose, ratio versus control (day 14): 1.34*; Metanephrine, ratio versus control (day 14): 0.44*; Nervonic acid (C24:cis[15]1), ratio versus control (day 14): 0.44*; Normetanephrine, ratio versus control (day 14): 0.5*; Pantothenic acid, ratio versus control (day 14): 2.3*; Phosphatidylcholine (C18:0,C20:3), ratio versus control (day 14): 0.56*; Phosphatidylcholine (C18:0,C20:4), ratio versus control (day 14): 0.78; Phosphatidylcholine (C18:2,C20:4), ratio versus control (day 14): 0.66*; Phosphatidylcholine No 02, ratio versus control (day 14): 0.37*; Phosphatidylcholine No 04, ratio versus control (day 14): 0.25*; Sphingomyelin (d18:1,C16:0), ratio versus control (day 14): 0.83*; Sphingomyelin (d18:2,C16:0), ratio versus control (day 14): 0.67*; Stearic acid (C18:0), ratio versus control (day 14): 0.45*; Tricosanoic acid (C23:0), ratio versus control (day 14): 0.72*; beta-Sitosterol, ratio versus control (day 14): 0.3*; dihomo-gamma-Linolenic acid (C20:cis[8,11,14]3), ratio versus control (day 14): 4.4*; erythro-Sphingosine, ratio versus control (day 14): 0.4*; myo-Inositol-2-phosphate, lipid fraction, ratio versus control (day 14): 0.37*; threo-Sphingosine, ratio versus control (day 14): 0.52*; trans-4-Hydroxyproline, ratio versus control (day 14): 0.57*; Lysophosphatidylcholine (C18:1), ratio versus control (day 14 (Table 3a)): 1.92*; Phosphatidylcholine (C16:0,C20:5), ratio versus control (day 14 (Table 3a)): 1.4*; Docosahexaenoic acid (C22:cis[4,7,10,13,16,19]6), ratio versus control (day 14 (Table 3b)): 0.25*; Phosphatidylcholine (C18:0,C22:6), ratio versus control (day 14 (Table 3b)): 0.33*; alpha-Tocopherol, ratio versus control (day 14 (Table 3b)): 0.77*; 3-O-Methylsphingosine (d18:1), ratio versus control (day 28): 0.39*; 5-O-Methylsphingosine (d18:1), ratio versus control (day 28): 0.4*; 14-Methylhexadecanoic acid, ratio versus control (day 28): 0.83*; 16-Methylheptadecanoic acid, ratio versus control (day 28): 0.16*; 17-Methyloctadecanoic acid, ratio versus control (day 28): 0.17*; Arachidonic acid (C20:cis[5,8,11,14]4), ratio versus control (day 28): 0.29*; Arginine, ratio versus control (day 28): 0.62*; Ascorbic acid, ratio versus control (day 28): 1.55*; Behenic acid (C22:0), ratio versus control (day 28): 0.51*; Campesterol, ratio versus control (day 28): 0.21*; Cholesterol, ratio versus control (day 28): 0.43*; Choline plasmalogen (C18,C20:4), ratio versus control (day 28): 0.51*; Choline plasmalogen No 01, ratio versus control (day 28): 0.55*; Choline plasmalogen No 02, ratio versus control (day 28): 0.49*; Choline plasmalogen No 03, ratio versus control (day 28): 0.54*; Coenzyme Q10, ratio versus control (day 28): 0.48*; Cytosine, ratio versus control (day 28): 0.79*; Docosapentaenoic acid (C22:cis[7,10,13,16,19]5), ratio versus control (day 28): 0.31*; Eicosanoic acid (C20:0), ratio versus control (day 28): 0.52*; Glucose, ratio versus control (day 28): 1.32*; Glycine, ratio versus control (day 28): 1.95*; Heptadecanoic acid (C17:0), ratio versus control (day 28): 0.52*; Isopalmitic acid (C16:0), ratio versus control (day 28): 0.47*; Kynurenic acid, ratio versus control (day 28): 2.04*; Lignoceric acid (C24:0), ratio versus control (day 28): 0.44*; Lysophosphatidylcholine (C17:0), ratio versus control (day 28): 0.36*; Lysophosphatidylcholine (C18:0), ratio versus control (day 28): 0.86*; Lysophosphatidylcholine (C18:2), ratio versus control (day 28): 1.33*; Lysophosphatidylethanolamine (C22:0), ratio versus control (day 28): 0.18*; Lysophosphatidylethanolamine (C22:5), ratio versus control (day 28): 1.29*; Mannose, ratio versus control (day 28): 1.23*; Metanephrine, ratio versus control (day 28): 0.55*; Nervonic acid (C24:cis[15]1), ratio versus control (day 28): 0.39*; Normetanephrine, ratio versus control (day 28): 0.78*; Pantothenic acid, ratio versus control (day 28): 3.51*; Phosphatidylcholine (C18:0,C20:3), ratio versus control (day 28): 0.57*; Phosphatidylcholine (C18:0,C20:4), ratio versus control (day 28): 0.75*; Phosphatidylcholine (C18:2,C20:4), ratio versus control (day 28): 0.56*; Phosphatidylcholine No 02, ratio versus control (day 28): 0.47*; Phosphatidylcholine No 04, ratio versus control (day 28): 0.24*; Sphingomyelin (d18:1,C16:0), ratio versus control (day 28): 0.71*; Sphingomyelin (d18:2,C16:0), ratio versus control (day 28): 0.49*; Stearic acid (C18:0), ratio versus control (day 28): 0.39*; Tricosanoic acid (C23:0), ratio versus control (day 28): 0.54*; beta-Sitosterol, ratio versus control (day 28): 0.2*; dihomo-gamma-Linolenic acid (C20:cis[8,11,14]3), ratio versus control (day 28): 3.24*; erythro-Sphingosine, ratio versus control (day 28): 0.43*; myo-Inositol-2-phosphate, lipid fraction, ratio versus control (day 28): 0.38*; threo-Sphingosine, ratio versus control (day 28): 0.55*; trans-4-Hydroxyproline, ratio versus control (day 28): 0.72*; Lysophosphatidylcholine (C18:1), ratio versus control (day 28 (Table 3a)): 1.22*; Phosphatidylcholine (C16:0,C20:5), ratio versus control (day 28 (Table 3a)): 1.21*; Docosahexaenoic acid (C22:cis[4,7,10,13,16,19]6), ratio versus control (day 28 (Table 3b)): 0.14*; Phosphatidylcholine (C18:0,C22:6), ratio versus control (day 28 (Table 3b)): 0.27*; alpha-Tocopherol, ratio versus control (day 28 (Table 3b)): 0.64*
